This is an account of results in patent US20140308317A1, “Polymeric Compounds And Methods Of Making And Using The Same” (CELLCEUTIX CORPORATION, priority 2012, published 2014).

The subject of series [1] is Staphylococcus aureus ATCC 27660. The experiment in a line: Minimum Inhibitory Concentration (MIC), modified microbroth dilution. The class given is cell-based. The conditions noted are these: S. aureus (27660), overnight incubation (18 hours); for MIC50: Staphylococcus aureus, ATCC27660, read-out: MIC50 S. aureus. For orientation: In broth dilution the organism is exposed to a series of concentrations in liquid medium.

A short description of series [2]: Cytotoxicity colorimetric (tetrazolium) assay. The settings on record: human, HepG2 cells (HB-8065), HepG2 cells; one hour with compound in serum-free media. The class given is cell-based, human. As for the experimental part:
(§1) Cytotoxicity of the compounds was evaluated in a colorimetric assay using a transformed human liver cell line (HepG2, HB-8065) and an embryonic mouse cell line (NIH/3T3 cells, CRL-1658). This assay measures the bioreduction of a novel tetrazolium compound to a soluble formazan product by viable cells. HepG2 cells were seeded in 96 well plates at 2×10^4 cells/well in MEM medium with 10% fetal bovine serum (FBS) 24 hours prior to use. NIH/3T3 cells were seeded in 96 well plates at 2×10^4 cells/well in DMEM medium with 10% bovine calf serum (BCS) 24 hours prior to use. Cell monolayers were rinsed in serum-free media and incubated for one hour with compounds in serum-free media. After incubation, the media is replaced with serum supplemented media and live cells were measured using the Cell Titer 96 Aqueous […] Assay kit (Promega, Madison, Wis.). EC50 values were determined using a four parameter logistic equation: Y=Bottom+(Top-Bottom)/(1+10̂((LogEC50−X)*HillSlope)).
(§2) Actual results from a representative cytotoxicity assay are shown below in Table 2. Data is expressed as EC50 in μg/mL.

In series [3] the test system is Pseudomonas aeruginosa ATCC 10145. The experiment in a line: Minimum Inhibitory Concentration (MIC), modified microbroth dilution. The class given is cell-based. The settings on record: P. aeruginosa (10145), overnight incubation (18 hours); for MIC50: Pseudomonas aeruginosa, ATCC10145, read-out: MIC50 P. Aeruginosa.
Series [4] can be described thus: Cytotoxicity colorimetric (tetrazolium) assay. The conditions noted are these: mouse, NIH/3T3 cells (CRL-1658), NIH/3T3 cells; one hour with compound in serum-free media. It counts as cell-based, mouse. As for the experimental part:
as §1, §2

Series [5] deals with Klebsiella pneumoniae ATCC 13883. The experiment in a line: Minimum Inhibitory Concentration (MIC), modified microbroth dilution. The class given is cell-based. The settings on record: K. pneumoniae (13883), overnight incubation (18 hours); for MIC50: Klebsiella pneumoniae, ATCC13883, read-out: MIC50 K. Pnuemnoiae.
Series [6] deals with Enterococcus faecalis ATCC 29212. The series is described as above. The settings on record: E. faecalis (29212), overnight incubation (18 hours); for MIC50: Enterococcus faecalis, ATCC29212, read-out: MIC50 E. faecalis. It counts as cell-based.
The test system of a further series is E. Coli ATCC 25922. The series is described as above. It counts as cell-based. The conditions noted are these: E. coli (25922), overnight incubation (18 hours); for MIC50: Escherichia coli, ATCC25922, read-out: MIC50 E. coli.
The next series relates to NIH/3T3 cells, CRL-1658. The experiment in a line: Cytotoxicity colorimetric (tetrazolium) assay. The class given is cell-based, mouse. The conditions noted are these: NIH/3T3 cells; one hour with compound in serum-free media. As to the method:
as §1, §2

Values after ≈ are worked out from the molar mass of the structure shown.

As for `NCCc1cc(CCN)cc(-c2csc(-c3cccc(-c4nccs4)c3)n2)c1` [Compound 136], the MIC50 (commonly an inhibitory concentration at the 50% level, which refers to growth in some studies and to a panel of isolates in others) was 25 µg/mL (≈ 61.5 µM) in series [1]; 50 µg/mL (≈ 123 µM) in series [3]; 50 µg/mL (≈ 123 µM) in series [5]; 50 µg/mL (≈ 123 µM) in series [6]; more than 50 µg/mL in the series with E. Coli ATCC 25922. For the same molecule, the values for the EC50 at 1 h in series [2] and in series [4] were 4.12 µg/mL (≈ 10.1 µM) and 250 µg/mL (≈ 615 µM), respectively.
Regarding `O=C(c1cc(C(=O)N2CCNCC2)cc(-c2ccc3sc4ccc(-c5cc(C(=O)N6CCNCC6)cc(C(=O)N6CCNCC6)c5)cc4c3c2)c1)N1CCNCC1` [Compound 170], the MIC50 (in series [1]; in series [3]; in series [5]; in series [6]; with E. Coli ATCC 25922) was more than 100 µg/mL throughout. Moreover, the EC50 (usually the concentration at which the effect is half-maximal) at 1 h in series [2] was more than 1000 µg/mL; in series [4], 436 µg/mL (≈ 555 µM).
For the molecule `N=C(N)NCC#Cc1cc(C#CCNC(=N)N)cc(-c2cc(-c3cc(C#CCNC(=N)N)cc(C#CCNC(=N)N)c3)cc(C(F)(F)F)c2)c1` [Compound 126], the “MIC50 S. aureus” value in series [1] was found to be 1.56 µg/mL (≈ 2.3 µM). In addition, the “MIC50 P. Aeruginosa” value in series [3] was 6.25 µg/mL (≈ 9.21 µM). The “EC50 NIH 3T3 (cytotoxicity)” value in the series on NIH/3T3 cells, CRL-1658 came to 59.7 µg/mL (≈ 88 µM). Moreover, the “MIC50 K. Pnuemnoiae” value in series [5] was determined as 6.25 µg/mL (≈ 9.21 µM). For the same molecule, the “MIC50 E. faecalis” value in series [6] is 1.56 µg/mL (≈ 2.3 µM). Moreover, the “MIC50 E. coli” value in the series with E. Coli ATCC 25922 stood at 6.25 µg/mL (≈ 9.21 µM).
`N=C(N)NCCc1cccc(-c2cc(-c3cccc(-c4cc(-c5cccc(CCNC(=N)N)c5)on4)c3)no2)c1` [Compound 129]: the MIC50 in series [1] was 0.78 µg/mL (≈ 1.46 µM); in series [3], 25 µg/mL (≈ 46.8 µM); in series [5], 12.5 to 25 µg/mL (≈ 23.4 to 46.8 µM); in series [6] it was 3.13 µg/mL (≈ 5.85 µM); with E. Coli ATCC 25922, 25 µg/mL (≈ 46.8 µM). The half-maximal effective concentration (EC50) at 1 h in series [2] was determined as 57 µg/mL (≈ 107 µM); in series [4] it was 35.8 µg/mL (≈ 66.9 µM).
Regarding `NCCc1cccc(-c2cc(-c3cccc(-c4cc(-c5cccc(CCN)c5)on4)c3)no2)c1` [Compound 128], the MIC50 in series [1] was determined as 1.56 µg/mL (≈ 3.46 µM); in series [3], 25 µg/mL (≈ 55.5 µM); in series [5] it was 25 µg/mL (≈ 55.5 µM); in series [6], 1.56 µg/mL (≈ 3.46 µM); with E. Coli ATCC 25922, 12.5 µg/mL (≈ 27.7 µM). Further, the values for the EC50 at 1 h in series [2] and in series [4] were 47 µg/mL (≈ 104 µM) and 22.3 µg/mL (≈ 49.5 µM), respectively.
Regarding `N=C(N)NCCCc1cccc(-c2ccc3c4ccc(-c5cccc(CCCNC(=N)N)c5)cc4n(CCCNC(=N)N)c3c2)c1` [Compound 158], the MIC50 amounted to 1.56 µg/mL (≈ 2.53 µM) in series [1]; 25 µg/mL (≈ 40.5 µM) in series [3]; 3.13 µg/mL (≈ 5.07 µM) in series [5]; 6.25 µg/mL (≈ 10.1 µM) in series [6]; 3.13 µg/mL (≈ 5.07 µM) with E. Coli ATCC 25922. The results for the EC50 at 1 h in series [2] and in series [4] were 100 µg/mL (≈ 162 µM) and 131 µg/mL (≈ 212 µM), respectively.
In the case of `NCCCOc1cc(OCCCN)cc(-c2ccc3c(c2)C(=O)c2cccc(-c4cc(OCCCN)cc(OCCCN)c4)c2CC3)c1` [Compound 155], the MIC50 in series [1] was 1.56 µg/mL (≈ 2.39 µM); in series [3], 25 µg/mL (≈ 38.3 µM); in series [5], more than 50 µg/mL; in series [6] it was more than 50 µg/mL; with E. Coli ATCC 25922, more than 50 µg/mL. Also, the EC50 at 1 h in series [2] worked out at 330 µg/mL (≈ 505 µM); in series [4] it was 177 µg/mL (≈ 271 µM).
With `NCCCn1c2cc(-c3cccc(N(CCN)CCN)c3)ccc2c2ccc(-c3cccc(N(CCN)CCN)c3)cc21` [Compound 160], the MIC50 in series [1] came out at 0.39 µg/mL (≈ 0.674 µM); in series [3], 12.5 µg/mL (≈ 21.6 µM); in series [5] it was 6.25 µg/mL (≈ 10.8 µM); in series [6], 6.25 µg/mL (≈ 10.8 µM); in the series on E. Coli ATCC 25922, 1.56 µg/mL (≈ 2.7 µM). In addition, the half-maximal effective concentration (EC50) at 1 h is 853 µg/mL (≈ 1470 µM) in series [2] and 451 µg/mL (≈ 779 µM) in series [4].
With `NCCc1cc(CCN)cc(-c2cccc(-c3cc(CCN)cc(CCN)c3)c2)c1` [Compound 115], the MIC50 in series [1] was 25 µg/mL (≈ 62.1 µM); in series [3], more than 50 µg/mL; in series [5] it was 50 µg/mL (≈ 124 µM); in series [6], more than 50 µg/mL; in the series with E. Coli ATCC 25922, 25 µg/mL (≈ 62.1 µM). For the same molecule, the figures for the EC50 at 1 h in series [2] and in series [4] were more than 1160 µg/mL and 1130 µg/mL (≈ 2810 µM), respectively.
